Test results published in patent publication US12024510B2, “Pyrazolopyridine-diamides, their use as insecticide and processes for preparing the same” (PI INDUSTRIES LTD., priority 2017, dated 2024).

Legend:
Assay type in all cases: in vivo
[1] = tested on: Helicoverpa armigera; assay: Helicoverpa armigera diet incorporation method; conditions: third instar larvae, dead and moribund combined, 96 h after release
Procedure, shortened: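 Third-instar larvae, starved, were placed singly on diet pieces containing test dispersion (bead-milled in surfactant, particles under 2 μm, 500 ppm stock then diluted). Trays kept at 25° C. and 70% RH; mortality counted at 96 h, moribund larvae counted with dead.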

[2] = tested on: Spodoptera litura; assay: Spodoptera litura diet incorporation method; conditions: third instar larvae, dead and moribund combined, 96 h after release
Procedure, shortened: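 Compound milled to <2 μm average particle size in surfactant, dispersed in water (500 ppm stock dispersion), then mixed into semi-synthetic diet at ~50° C. One starved third-instar larva per diet cell, 25° C, 70% RH; percent mortality (dead plus moribund) scored at 96 h.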

[3] = tested on: Plutella xylostella; assay: whole plant or invertebrate; conditions: foliar, cabbage leaf dip, second instar larvae, dead and moribund combined, 72 h after release
Procedure, shortened: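 Leaf-dip bioassay: second-instar larvae, singly, fed on cabbage leaves dipped 10 s in test dispersion (bead-milled, diluted with 0.01% Triton-X to test concentration) and dried 20 min. Held at 25 °C, 70% RH; % mortality counts dead and moribund at 72 h.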

Measured: mortality at 300 ppm

Cc1cc2ccnn2c(C(=O)NCC2CCOCC2)c1NC(=O)c1cc(Br)nn1-c1ncccc1Cl [Compound 195, 6-(3-bromo-1-(3-chloropyridin-2-yl)-1H-pyrazole-5-carboxamido)-5-methyl-N-((tetrahydro-2H-pyran-4-yl)methyl)pyrazolo[1,5-a]pyridine-7-carboxamide]
> 70%: all assays above

Cc1cc2ccnn2c(C(=O)NC(C)(C)CO)c1NC(=O)c1cc(Br)nn1-c1ncccc1Cl [Compound 196, 6-(3-bromo-1-(3-chloropyridin-2-yl)-1H-pyrazole-5-carboxamido)-N-(1-hydroxy-2-methylpropan-2-yl)-5-methylpyrazolo[1,5-a]pyridine-7-carboxamide]
> 70%: all assays above

COc1cc(C(=O)Nc2c(C)cc3ccnn3c2C(=O)NC(C)(C)CO)n(-c2ncccc2Cl)n1 [Compound 197, 6-(1-(3-chloropyridin-2-yl)-3-methoxy-1H-pyrazole-5-carboxamido)-N-(1-hydroxy-2-methylpropan-2-yl)-5-methylpyrazolo[1,5-a]pyridine-7-carboxamide]
> 70%: all assays above

COc1cc(C(=O)Nc2c(C)cc3ccnn3c2C(=O)NCC2CCOCC2)n(-c2ncccc2Cl)n1 [Compound 201, 6-(1-(3-chloropyridin-2-yl)-3-methoxy-1H-pyrazole-5-carboxamido)-5-methyl-N-((tetrahydro-2H-pyran-4-yl)methyl)pyrazolo[1,5-a]pyridine-7-carboxamide]
> 70%: all assays above

COc1cc(C(=O)Nc2c(C)cc3ccnn3c2C(=O)NCC2CCCC2)n(-c2ncccc2Cl)n1 [Compound 203, 6-(1-(3-chloropyridin-2-yl)-3-methoxy-1H-pyrazole-5-carboxamido)-N-(cyclopentylmethyl)-5-methylpyrazolo[1,5-a]pyridine-7-carboxamide]
> 70%: all assays above

COc1cc(C(=O)Nc2c(C)cc3ccnn3c2C(=O)NCC(F)F)n(-c2ncccc2Cl)n1 [Compound 214, 6-(1-(3-chloropyridin-2-yl)-3-methoxy-1H-pyrazole-5-carboxamido)-N-(2,2-difluoroethyl)-5-methylpyrazolo[1,5-a]pyridine-7-carboxamide]
> 70%: all assays above

COc1cc(C(=O)Nc2c(C)cc3ccnn3c2C(=O)NC2CSC2)n(-c2ncccc2Cl)n1 [Compound 215, 6-(1-(3-chloropyridin-2-yl)-3-methoxy-1H-pyrazole-5-carboxamido)-5-methyl-N-(thietan-3-yl)pyrazolo[1,5-a]pyridine-7-carboxamide]
> 70%: all assays above

COc1cc(C(=O)Nc2c(Br)cc3ccnn3c2C(=O)NC(C)C(F)(F)F)n(-c2ncccc2Cl)n1 (stereo not drawn) [Compound 226, 5-bromo-6-(1-(3-chloropyridin-2-yl)-3-methoxy-1H-pyrazole-5-carboxamido)-N-(1,1,1-trifluoropropan-2-yl)pyrazolo[1,5-a]pyridine-7-carboxamide]
> 70%: all assays above
